# In patent US20230220480A1, “IRON-SCORE AND IN VITRO METHOD FOR IDENTIFYING HIGH RISK DLBCL SUBJECTS AND THERAPEUTIC USES AND METHODS” (CENTRE NATIONAL DE LA RECHERCHE SCIENTIFIQUE (CNRS), priority 2019, published 2023):
# Where two headings read alike, the source gives them in different places.
# Experiments:
# DB = assay: Cell viability assay (CellTiter-Glo, ATP quantification); format: cell-based, human; settings: 96H, read-out: IC50
# Procedure: (§1) FIG. 3: Iron chelators and Ironomycin inhibit DLBCL cell growth DLBCL cells were incubated with different concentrations of iron chelators or vehicle for 96H. Inhibitory concentration 50% (IC50) was calculated with concentration-response curve after treatment with Deferoxamin (A), Deferasirox, (B) and Ironomycin (C). Cell viability was examined using quantification of ATP assay. Data are expressed as mean percentage+/−SEM of at least three independent experiments performed in sixplicate.
# (§2) The 16 DLBCL cell lines (U2932, OCI-LY-3, NU-DHL-1, OCI-LY-19, DB, SUDHL4, OCILY1, SUDHL5, DOHH2, SUDHL10, HT, RI-1, SU-DHL-6, NUDUL-1, WSU-DLCL-2 and OCI-LY-7) were purchased from the DSMZ (Leibniz-Institut DSMZ—Deutsche Sammlung von Mikroorganismen und Zellkulturen GmbH, Germany). They were maintained in RPMI-1640 (Gibco, Invitrogen), supplemented with 10% fetal bovine serum (PAA laboratory GmbH) for U2932, SUDHL-4, HT, DOHH2, SUDHL-10, RI-1, WSU-DLCL-2 cell lines, 20% FBS OCI-LY3, DB, SUDHL-5, NUDHL-1, SU-DHL-6, NUDUL-1 cell lines. OCI-LY1 and OCI-LY7 were cultured in IMDM (Gibco, Invitrogen), supplemented with 20% fetal bovine serum and OCI-LY19 was cultured in MEM alpha modified (Gibco, Invitrogen), supplemented with 20% fetal bovine serum. Cultures were maintained at 37° C. in a humidified atmosphere with 5% CO2.
# (§3) DLBCL-derived cell lines were cultured for 4 days in 96-well flat-bottom microtiter plates in RPMI 1640 medium, 10% or 20% FCS (control medium) in the presence of various compounds. The number of viable cells in culture was determined using the CellTiter-Glo Luminescent Cell Viability Assay from Promega, Madison, Wis., USA using a Centro LB 960 luminometer (Berthold Technologies, Bad Wildbad, Germany).
# (§4) This test is based on quantitation of the intracellular ATP present, which signals the presence of metabolically active cells. Data are expressed as the mean percentage of six replicates, normalized to the untreated control.
# OCI-LY3 = assay: as above; format: cell-based, human; settings: OCI-LY3, 96H; read-out: IC50
# Procedure: as §1, §2, §3, §4
# SUDHL-5 = assay: as above; format: cell-based, human; settings: SUDHL5, 96H; read-out: IC50
# Procedure: as §1, §2, §3, §4
# U2932 = assay: as above; format: cell-based, human; settings: U2932, 96H; read-out: IC50
# Procedure: as §1, §2, §3, §4
# DOHH-2 = assay: as above; format: cell-based, human; settings: DOHH-2 (GCB), 96H
# Text: as §2, §3, §4
# (§5) We extending the analyses to a large panel of 16 DLBCL cell lines. The panel of 16 DLBCL cell lines were incubated with increasing concentrations of Ironomycin or vehicle for 96H. Table 7 hereunder presents the inhibitory concentration 50% (IC50) of Ironomycin for the 16 DLBCL cell-lines.
# HT = assay: as above; format: cell-based, human; settings: HT (GCB), 96H
# Text: as §2, §3, §4, §5
# NU-DHL-1 = assay: as above; format: cell-based, human; settings: NU-DHL-1 (GCB), 96H
# Text: as §2, §3, §4, §5
# NU-DUL-1 = assay: as above; format: cell-based, human; settings: NU-DUL-1 (ABC), 96H
# Text: as §2, §3, §4, §5
# OCI-LY19 = assay: as above; format: cell-based, human; settings: OCI-LY19 (GCB), 96H
# Text: as §2, §3, §4, §5
# OCI-LY1 = assay: as above; format: cell-based, human; settings: OCI-LY1 (GCB), 96H
# Text: as §2, §3, §4, §5
# OCI-LY7 = assay: as above; format: cell-based, human; settings: OCI-LY7 (GCB), 96H
# Text: as §2, §3, §4, §5
# RI-1 = assay: as above; format: cell-based, human; settings: RI-1 (ABC), 96H
# Text: as §2, §3, §4, §5
# SU-DHL-10 = assay: as above; format: cell-based, human; settings: SU-DHL-10 (GCB), 96H
# Text: as §2, §3, §4, §5
# SU-DHL-4 = assay: as above; format: cell-based, human; settings: SU-DHL-4 (GCB), 96H
# Text: as §2, §3, §4, §5
# SU-DHL-6 = assay: as above; format: cell-based, human; settings: SU-DHL-6 (GCB), 96H
# Text: as §2, §3, §4, §5
# WSU-DLCL-2 = assay: as above; format: cell-based, human; settings: WSU-DLCL-2 (GCB), 96H
# Text: as §2, §3, §4, §5
# 16 DLBCL cell lines = assay: Cell viability assay, panel of 16 DLBCL cell lines; format: cell-based, human; settings: 96H, read-out: IC50 range over all DLBCL cell lines
# Text: as §2, with “Cultures were maintained at 37° C. in a humidified atmosphere with 5% CO2.” left out
# as §3
# This test is based on quantitation of the intracellular ATP present, which signals the presence of metabolically active cells. Data are expressed as the mean percentage of six replicates, normalized to the untreated control. […]
# [1] = test system: OCI-LY3 and DB cell lines
# Text: The inventors further investigated the effect of Iron supplementation on the cell death induced by these treatments. Iron chelators concentrations were chosen according the maximal plasmatic concentration achievable in the patient (Nisbet-Brown et al., 2003).
# Chaetocin was used as positive control of ROS production inhibited by GSH (Isham et al., 2007).
# DLBCL cells [2] = assay: Ferroptosis, Bodipy-C11 staining and ferrostatin-1 rescue; format: cell-based, human
# DLBCL cells [3] = assay: DNA double strand breaks, Phospho-H2A.X (Ser139) foci and western blot; format: cell-based, human; settings: 24 hours
# Procedure: DSB induction was monitored by Phospho-H2A·X (Ser139) staining and nuclei were stained with DAPI. Foci were visualized by fluorescence microscopy. Original magnification X 63. Scale bar: 10 μm.
# Cells were treated with iron chelators (80 μM Deferasirox), and Ironomycin (20 nM and 100 nM) during 24H. Protein levels of Phospho-H2A·X (S139) were analyzed by western blot (D)
# At least 300 cells were counted for each group. Statistical difference was tested using a Fisher's exact test. * P<0.05, ** P<0.01, *** P<0.001, **** P<0.0001. NS: non-significant.
# primary DLBCL cells = settings: for reduction of the median number of viable primary DLBCL cells: N=5 patients, with CD40L
# Procedure: Primary samples of DLBCL patients were cultured with their microenvironment recombinant CD40L in presence or absence of 50 nM and 100 nM of Ironomycin. Percentage of malignant DLBCL cells for each individual patients were analyzed by flow cytometry and expressed in % of control (A). […] The effect of Ironomycin alone or in combination with Doxorubicin on normal CD3+ cells was assessed by flow cytometry (C).
# Cells are obtained from lymph nodes or blood of 5 patients with DLBCL. Cells from blood are obtained by density gradient separation and cells from lymph node are obtained with a tissues dissociator and qualified by Flow cytometry.
# Cells are cultured in Gibco® Iscove's MDM (Glutamax) medium (#31980-022) with 20% FBS with antibiotitcs-antimicotics (Gibco Penicillin-streptomycin-amphotericin B 100X, #15240-096) at a density of 0.5×10^6 Cell/mL with 50 ng/mL of histidine-tagged CD40L (R&D System, 2706-CL) and 5 μg/mL of anti-histidine antibody R&D System, MAB050), Gibco® pyruvate 100X, #1136-039. Cells are seeded 24H after thawing and treated with various compounds during 72H.
# Total cells were counted with trypan bleu and stained with the panel CD45 V500 (BD, #560777), Kappa FITC (Dako, F0434), CD19 PE-Cy7 (BD, #341113), Lambda PE (Dako, R0437), CD3 APC-H7 (BD, #641415), CD10 APC (BD, #332777) and CD20 V450 (BD, #655872) and analyzed by flow cytometry (Canto II cytometer, BD Pharmigen).Tumorous population cells were gated on CD19+, CD45+, CD20+, Kappa or lambda and non-tumorous population cells were gated on CD45+,CD19−, and T cells on CD45+, CD3+, CD19−.
compound,measurement,setting,value
C#CCN[C@@H]1C=C[C@]2(O[C@H]([C@@H](CC)C(=O)[C@@H](C)[C@@H](O)[C@H](C)[C@@H]3O[C@@H]([C@@H](CC)C(=O)O)CC[C@@H]3C)[C@@H](C)C[C@H]2C)O[C@@]12CC[C@@](C)([C@H]1CC[C@](O)(CC)[C@H](C)O1)O2 [Ironomycin],IC50,DB,17.2 nM
same,IC50,OCI-LY3,16.8 nM
same,IC50,SUDHL-5,28.9 nM
same,IC50,U2932,30.4 nM
same,IC50,DOHH-2,91.5 nM
same,IC50,HT,24.1 nM
same,IC50,NU-DHL-1,50.5 nM
same,IC50,NU-DUL-1,13.7 nM
same,IC50,OCI-LY19,46.9 nM
same,IC50,OCI-LY1,20.3 nM
same,IC50,OCI-LY7,51.6 nM
same,IC50,RI-1,30.2 nM
same,IC50,SU-DHL-10,36.5 nM
same,IC50,SU-DHL-4,7.2 nM
same,IC50,SU-DHL-6,32.8 nM
same,IC50,WSU-DLCL-2,30.7 nM
same,IC50,16 DLBCL cell lines,7.2 to 91.5 nM
same,caspase activation associated with apoptosis,[1],activation of caspase-3 and −7
same,induction of apoptosis,[1]; Annexin V and PARP cleavage,induces apoptosis
same,effect of iron supplementation on drug-induced apoptosis / cytotoxicity,[1]; Iron(III) chloride supplementation,did not affect
same,inhibition of induced apoptosis by Oph-Q-VD pan-caspase inhibitor,[1]; P<0.001,partially inhibited
same,prevention of induced cell death by ferrostatin-1,DLBCL cells [2],partially prevented
same,rescue of toxicity by combination of Oph-Q-VD and Fer-1,DLBCL cells [2],could not completely abrogate
same,induction of ferroptosis (lipid peroxidation),DLBCL cells [2]; Bodipy-C11 staining,induces ferroptosis
same,"DNA double strand breaks (γH2AX foci, H2AX phosphorylation)",DLBCL cells [3],induced DNA double strand breaks
same,reduction of the median number of viable primary DLBCL cells,primary DLBCL cells; 50 nM,63.1%
same,reduction of the median number of viable primary DLBCL cells,primary DLBCL cells; 100 nM,67.1%
same,toxicity in DLBCL cells compared to normal cells from the microenvironment,"primary DLBCL cells; primary samples, 50 nM and 100 nM",higher toxicity
